Data on eleven compounds can be found in ChEMBL document CHEMBL1201862, “PubChem BioAssay data set” (2004).

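All cell lines were grown in 96-well plates and treated with compound for 48 hours. GI50: concentration for 50% inhibition of growth.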 Activity calls are given as the source filed them. No stated cut-off is given here; in the data, active = GI50 up to about 1.1 µM and inactive = higher.

Test systems include 786-0; KM12; SR; RXF 393; M14; SK-MEL-28; A549; CCRF-CEM; IGROV-1; SK-OV-3; UO-31; T47D; SK-MEL-5; NCI-H226; UACC-257; SF-539; HCC 2998; NCI-H460; ACHN; HOP-92.
Holding throughout (test): NCI anticancer screen, dose series, 48 h

As to `C[N+]12C=CC=C1C(N1CCCC1)c1scc(-c3ccccc3)c12` (centres undefined), the GI50 with 786-0 was 47.4 µM (inactive); with KM12, 8.55 µM (inactive); in the assay with SR, 12.6 µM (inactive); with RXF 393, 17.8 µM (inactive); in the assay with M14, 50.2 µM (inactive); with SK-MEL-28, 37.2 µM (inactive). The GI50 in the assay with A549 is 59.8 µM (inactive); in the assay on CCRF-CEM it was 22.4 µM (inactive); in the assay with IGROV-1, 4.99 µM (inactive); in the assay on SK-OV-3 it was > 100 µM (inactive); in the assay on UO-31, > 100 µM (inactive); in the assay on T47D, 4.25 µM (inactive). Further, the figures for the GI50 in the assay on SK-MEL-5 and with NCI-H226 were 11.9 µM (inactive) and 1.6 µM (inactive), respectively.
`O=C(c1ccccc1)N1CCC(Nc2nccs2)O1` (centres undefined): the GI50 in the assay with 786-0, in the assay with SR, with RXF 393, with M14, with UACC-257 and in the assay on SK-MEL-28 was > 10 µM (inactive) each time. Further, the GI50 in the assay with SF-539, in the assay with A549, with CCRF-CEM, with IGROV-1, in the assay on SK-OV-3 and with UO-31 was > 10 µM (inactive) throughout. Also, the GI50 in the assay on HCC 2998, with NCI-H460, in the assay on ACHN, in the assay with T47D, with SK-MEL-5 and in the assay on NCI-H226 was > 10 µM (inactive) throughout.
In the case of `CCN(CC)C1=Nc2ccccc2-n2c(C)cnc2C1`, the GI50 with 786-0 is > 100 µM (inactive); in the assay on KM12, > 100 µM (inactive); in the assay on RXF 393 it was > 100 µM (inactive); in the assay with M14, > 100 µM (inactive); with UACC-257 it was > 61.5 µM (inactive); in the assay on SK-MEL-28, > 100 µM (inactive). For the same compound, the GI50 in the assay on HOP-92, with SF-539, in the assay on A549, with CCRF-CEM, with IGROV-1 and in the assay on SK-OV-3 was > 100 µM (inactive) throughout. Also, the GI50 with UO-31 was > 88.7 µM (inactive); with HCC 2998, > 100 µM (inactive); in the assay with NCI-H460, > 100 µM (inactive); with ACHN, > 100 µM (inactive); in the assay on T47D, > 100 µM (inactive); in the assay on SK-MEL-5 it was > 100 µM (inactive). The GI50 with NCI-H226 was > 100 µM (inactive).
For `COc1cc(-c2oc3c(OC)c(O)c(OC)c(O)c3c(=O)c2OC)cc(OC)c1OC`, the GI50 is 32.4 µM (inactive) in the assay with 786-0; > 100 µM (inactive) in the assay with KM12; 51.2 µM (inactive) in the assay with SR; 14.1 µM (inactive) in the assay on M14; 82.4 µM (inactive) in the assay with UACC-257; 81.5 µM (inactive) in the assay on SK-MEL-28. The GI50 in the assay with SF-539 is 74.3 µM (inactive); with A549, > 100 µM (inactive); in the assay with CCRF-CEM it was 47.9 µM (inactive); in the assay with IGROV-1, 31.3 µM (inactive); with SK-OV-3, 40.9 µM (inactive); in the assay on UO-31, 17.3 µM (inactive). Further, the GI50 in the assay on HCC 2998 is 52.4 µM (inactive); with NCI-H460 it was 39 µM (inactive); with ACHN, 48.3 µM (inactive); in the assay on T47D it was 24.6 µM (inactive); with SK-MEL-5 it was 14 µM (inactive); with NCI-H226, > 100 µM (inactive).
Consider `CC(=O)OCC12C(OC(C)=O)C[C@@H](C)C3(CC(c4ccoc4)OC3=O)C1CCC(OC(C)=O)C21CO1` (some centres undefined), for which the GI50 in the assay with 786-0, in the assay on KM12, in the assay on RXF 393, in the assay with M14, in the assay with UACC-257 and in the assay with SK-MEL-28 was > 100 µM (inactive) in each case. Besides, the GI50 in the assay on HOP-92, in the assay on SF-539, with A549, in the assay on CCRF-CEM, in the assay on IGROV-1 and in the assay on SK-OV-3 was > 100 µM (inactive) in each case. Moreover, the GI50 in the assay with UO-31, with HCC 2998, with NCI-H460, with ACHN, in the assay with T47D and in the assay with SK-MEL-5 was > 100 µM (inactive) throughout. The GI50 in the assay with NCI-H226 is > 100 µM (inactive).
On to `COC(=O)C1=C(C)NC2(C)OC(C)(O)C(C(C)=O)C12C(C)=O` (centres undefined), for which the GI50 was > 100 µM (inactive) with 786-0; > 100 µM (inactive) in the assay with KM12; 57.7 µM (inactive) in the assay on RXF 393; 60.5 µM (inactive) in the assay with M14; > 100 µM (inactive) in the assay with UACC-257; 38.5 µM (inactive) in the assay with SK-MEL-28. Moreover, the GI50 with HOP-92 is 33.2 µM (inactive); in the assay with SF-539, 24.3 µM (inactive); in the assay on A549, > 100 µM (inactive); with CCRF-CEM, 31.6 µM (inactive); in the assay with IGROV-1 it was > 100 µM (inactive); in the assay with SK-OV-3 it was 28.5 µM (inactive). Besides, the GI50 in the assay on NCI-H460 was > 100 µM (inactive); in the assay with ACHN, 70.6 µM (inactive); in the assay with T47D it was > 100 µM (inactive); in the assay with SK-MEL-5 it was > 100 µM (inactive); in the assay on NCI-H226 it was 16.5 µM (inactive).
Consider `CCOC(=O)C(CC#Cc1ccc(C#CCC(NC(C)=O)C(=O)OCC)cc1)NC(C)=O` (centres undefined), for which the GI50 in the assay with 786-0, in the assay with KM12, with SR, in the assay with RXF 393, in the assay on M14 and with UACC-257 was > 100 µM (inactive) in each case. Also, the GI50 in the assay with SK-MEL-28, in the assay on SF-539, in the assay on A549, in the assay with CCRF-CEM, with IGROV-1 and with SK-OV-3 was > 100 µM (inactive) throughout. For the same compound, the GI50 in the assay on UO-31, with HCC 2998, in the assay with NCI-H460, in the assay with ACHN, with T47D and with SK-MEL-5 was > 100 µM (inactive) each time. The GI50 in the assay with NCI-H226 is > 100 µM (inactive).
Take `CN1[C@@H]2CCCC[C@H]2N(C)P1(=O)C(O)/C=C/c1ccccc1` (some centres undefined): the GI50 with 786-0, in the assay on KM12, with RXF 393, in the assay on M14, with UACC-257 and in the assay with SK-MEL-28 was > 100 µM (inactive) in each case. Also, the GI50 with HOP-92, in the assay on A549, in the assay with CCRF-CEM, in the assay on IGROV-1, in the assay with SK-OV-3 and in the assay with UO-31 was > 100 µM (inactive) in each case. Also, the GI50 with HCC 2998, in the assay on NCI-H460, in the assay with ACHN, with T47D, with SK-MEL-5 and in the assay with NCI-H226 was > 100 µM (inactive) throughout.
Take `CC(=O)Oc1ccccc1C(=O)O` [ASPIRIN]: the GI50 with 786-0, in the assay on KM12, in the assay with SR, with RXF 393, in the assay with M14 and in the assay with UACC-257 was > 100 µM (inactive) in each case. The GI50 with SK-MEL-28, with SF-539, in the assay with A549, with CCRF-CEM, with SK-OV-3 and in the assay on UO-31 was > 100 µM (inactive) throughout. In addition, the GI50 with ACHN, with T47D, with SK-MEL-5 and in the assay with NCI-H226 was > 100 µM (inactive) in each case.
In the case of `O=C1CNC(=O)/C(=C/c2c[nH]c3ccccc23)N1`, the GI50 in the assay with 786-0, in the assay on KM12, in the assay on RXF 393, in the assay on M14, in the assay on UACC-257 and in the assay with SK-MEL-28 was > 100 µM (inactive) throughout. In addition, the GI50 with HOP-92, with A549, in the assay with IGROV-1, with SK-OV-3, in the assay on UO-31 and in the assay on HCC 2998 was > 100 µM (inactive) each time. In addition, the GI50 with NCI-H460, in the assay on ACHN, with T47D, in the assay on SK-MEL-5 and in the assay with NCI-H226 was > 100 µM (inactive) throughout.
For the compound `COc1ccc(C2C3=C(COC3=O)Oc3cc4c(cc32)OCO4)cc1OC` (centres undefined), the GI50 in the assay with 786-0 was 1.04 µM (active); in the assay on KM12 it was 0.301 µM (active); with RXF 393 it was 0.891 µM (active); in the assay on M14, 1.52 µM (inactive); in the assay on UACC-257, 6.87 µM (inactive); in the assay with SK-MEL-28 it was 1.16 µM (inactive). For the same compound, the GI50 with HOP-92 was 39.4 µM (inactive); in the assay on SF-539, 0.547 µM (active); with A549, 1.27 µM (inactive); in the assay on CCRF-CEM it was 0.428 µM (active); in the assay on IGROV-1, 0.713 µM (active); in the assay on SK-OV-3 it was 0.75 µM (active). In addition, the GI50 in the assay on UO-31 was 3.73 µM (inactive); in the assay with HCC 2998 it was 0.614 µM (active); in the assay on NCI-H460, 0.547 µM (active); in the assay on ACHN, 1.82 µM (inactive); in the assay on T47D, 10.1 µM (inactive); in the assay on SK-MEL-5, 0.489 µM (active). Also, in the assay with NCI-H226, the GI50 is 4.65 µM (inactive).
